Experimental findings from PubChem BioAssay (NCI) are described below.

Among the test systems are DU-145 prostate; RXF 393 renal; MOLT-4 leukemia; NCI-H460 lung; SW-620 colon; K-562 leukemia; HS 578T breast; EKVX NSCLC; HCT-15 colon; LOX IMVI melanoma.
What all share (test): NCI anticancer screen, dose series, 48 h

The structures appear in SMILES notation. Where “and” joins values, the source holds several entries; their conditions need not be identical. Equal values may be shown once.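 Growth conditions: 96-well plates. Treatment: test compound, 48 hours, 5 concentrations. Analysis: linear interpolation between bracketing concentrations; unreached endpoints set to highest concentration. GI50 = concentration required for 50% inhibition of growth. At the TGI there is no net growth.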

In the case of `N#Cc1c[nH]n2c(N=Nc3ccc(Cl)cc3)c(O)nc12`, the GI50 in the assay on DU-145 prostate is 42.6 µM; in the assay with RXF 393 renal, 29700 nM; in the assay with MOLT-4 leukemia, 33.7 µM; in the assay with NCI-H460 lung, 29.1 µM; in the assay with SW-620 colon it was 47.9 µM; in the assay on K-562 leukemia it was 26.4 µM. Further, the GI50 in the assay with HS 578T breast is 56.9 µM; in the assay with EKVX NSCLC, 31.7 µM; in the assay with HCT-15 colon, 22 µM; in the assay with LOX IMVI melanoma, 28800 nM. Further, the TGI in the assay on DU-145 prostate, in the assay with RXF 393 renal, in the assay on MOLT-4 leukemia, in the assay on NCI-H460 lung, in the assay on SW-620 colon and in the assay on K-562 leukemia was greater than 100 µM each time. Further, the TGI with HS 578T breast was greater than 100 µM; in the assay with EKVX NSCLC, 81.1 µM; with HCT-15 colon, 62.9 µM; with LOX IMVI melanoma it was greater than 100 µM.
In the case of `O=CNc1ccc2c(c1)C(=O)c1ccccc1-2`, the TGI in the assay with DU-145 prostate, in the assay with RXF 393 renal, in the assay with MOLT-4 leukemia, in the assay on NCI-H460 lung, with SW-620 colon and in the assay with K-562 leukemia was greater than 100 µM each time. The TGI was greater than 100 µM in the assay on HS 578T breast, 43.1 µM in the assay with EKVX NSCLC, greater than 100 µM in the assay with HCT-15 colon and greater than 100 µM in the assay with LOX IMVI melanoma.
Regarding `CC1=C2C(=C[C@@](C)(CO)[C@@H]2O)C(=O)[C@](C)(O)C12CC2`, the TGI in the assay with DU-145 prostate was 0.0597 µM; with RXF 393 renal, 0.018 µM; with NCI-H460 lung it was 0.00701 µM and 0.0108 µM; in the assay on SW-620 colon, 0.074 µM and 0.129 µM; in the assay on HS 578T breast it was 0.0428 µM; in the assay with EKVX NSCLC, 0.0678 µM and 0.0153 µM. Further, the values for the TGI with HCT-15 colon and with LOX IMVI melanoma were 0.0344 µM and 0.0376 µM, respectively. Further, the figures for the GI50 in the assay with MOLT-4 leukemia and in the assay with K-562 leukemia were 0.0107 µM and 0.0222 µM, respectively.
For `CC(=O)CC(OC(C)=O)C1=CCC2C(CC1C)OC(=O)C2C` (stereo not given), the TGI with DU-145 prostate, in the assay on RXF 393 renal, in the assay on MOLT-4 leukemia, with NCI-H460 lung, with SW-620 colon and in the assay on K-562 leukemia was greater than 100 µM in each case. Besides, the TGI with HS 578T breast, in the assay with EKVX NSCLC, in the assay with HCT-15 colon and in the assay on LOX IMVI melanoma was greater than 100 µM each time.
In the case of `CCCCCCCCCCn1cc[n+](C)c1`, the GI50 in the assay on DU-145 prostate is 5.25 µM; in the assay with RXF 393 renal it was 2940 nM; in the assay with MOLT-4 leukemia, 2.9 µM; in the assay with NCI-H460 lung it was 3.52 µM; in the assay with SW-620 colon, 3.3 µM; with K-562 leukemia it was 0.263 µM. Further, the GI50 in the assay with HS 578T breast is 2.36 µM; in the assay with EKVX NSCLC it was 0.536 µM; in the assay with HCT-15 colon it was 17.9 µM; in the assay with LOX IMVI melanoma, 1790 nM. The TGI was 30.7 µM in the assay with DU-145 prostate; 14.2 µM in the assay with RXF 393 renal; 29 µM in the assay with MOLT-4 leukemia; 19.2 µM in the assay with NCI-H460 lung; 33 µM in the assay on SW-620 colon; 3.67 µM with K-562 leukemia. Further, the TGI in the assay on HS 578T breast was 14 µM; in the assay with EKVX NSCLC, 11.6 µM; in the assay with HCT-15 colon, greater than 100 µM; with LOX IMVI melanoma, 13.2 µM.
Turning to `Nc1n[nH]c2cccc(C#Cc3cccc(C(=O)Nc4ccc(CN5CCOCC5)c(C(F)(F)F)c4)c3)c12`, the GI50 in the assay with DU-145 prostate was 3.93 µM; in the assay with RXF 393 renal, 1530 nM; with MOLT-4 leukemia it was 1.4 µM; with NCI-H460 lung, 3.2 µM; in the assay on SW-620 colon, 2.89 µM; in the assay on K-562 leukemia, 0.0233 µM. Besides, the GI50 in the assay on HS 578T breast is 2.19 µM; with EKVX NSCLC, 3.42 µM; with HCT-15 colon, 2.56 µM; with LOX IMVI melanoma, 1670 nM. The TGI in the assay with DU-145 prostate was 13.3 µM; in the assay on RXF 393 renal it was 3.44 µM; in the assay on MOLT-4 leukemia, 4.24 µM; with NCI-H460 lung, 10.3 µM; in the assay on SW-620 colon, 12.7 µM; in the assay with K-562 leukemia, greater than 100 µM. Also, the TGI came to 8.23 µM with HS 578T breast, 19 µM with EKVX NSCLC, 9.32 µM in the assay on HCT-15 colon and 4.02 µM with LOX IMVI melanoma.
With `Cn1ccc2c3c(Oc4ccc(NC(N)=O)cc4)ccnc3ccc21`, the GI50 in the assay with DU-145 prostate was greater than 100 µM; in the assay on RXF 393 renal it was greater than 100000 nM; in the assay on MOLT-4 leukemia, greater than 100 µM; with NCI-H460 lung, greater than 100 µM; in the assay on SW-620 colon, greater than 100 µM; in the assay with K-562 leukemia, greater than 100 µM. Also, the GI50 was 40.1 µM in the assay with HS 578T breast, greater than 100 µM in the assay with EKVX NSCLC, greater than 100 µM in the assay on HCT-15 colon and greater than 100000 nM with LOX IMVI melanoma. Also, the TGI in the assay with DU-145 prostate, in the assay with RXF 393 renal, in the assay with MOLT-4 leukemia, in the assay on NCI-H460 lung, in the assay on SW-620 colon and with K-562 leukemia was greater than 100 µM each time. The TGI in the assay with HS 578T breast, in the assay on EKVX NSCLC, in the assay on HCT-15 colon and in the assay on LOX IMVI melanoma was greater than 100 µM in each case.
For the molecule `O=C(/C=C/c1ccc(O)cc1)c1ccc(O)cc1`, the TGI in the assay on DU-145 prostate was 99.9 µM; with RXF 393 renal it was 50.1 µM; in the assay with MOLT-4 leukemia, 82.3 µM; in the assay on NCI-H460 lung, 72.5 µM; in the assay with SW-620 colon, 57.9 µM; in the assay on K-562 leukemia it was greater than 82.3 µM. Also, the TGI in the assay on HS 578T breast was greater than 67.5 µM; in the assay on EKVX NSCLC it was 97.1 µM; in the assay with HCT-15 colon, 57.5 µM; in the assay with LOX IMVI melanoma, 28.1 µM.
For `O=C(O)c1nc2nc(Cl)c(Cl)nc2[nH]1`, the TGI with DU-145 prostate, in the assay on RXF 393 renal, in the assay with MOLT-4 leukemia, in the assay with NCI-H460 lung, with SW-620 colon and in the assay with K-562 leukemia was greater than 100 µM throughout. For the same molecule, the TGI in the assay with HS 578T breast, in the assay on EKVX NSCLC, in the assay on HCT-15 colon and with LOX IMVI melanoma was greater than 100 µM each time.
`COC[C@H]1Cn2cc(-c3nc(Nc4ccnn4C)ncc3C)nc2C(=O)N1Cc1ccc(F)c(F)c1`: the GI50 in the assay on DU-145 prostate was 22.7 µM; with RXF 393 renal it was 1660 nM; in the assay with MOLT-4 leukemia, 23.9 µM; in the assay on NCI-H460 lung, 12.3 µM; with SW-620 colon, 0.156 µM; with K-562 leukemia it was 5.85 µM. For the same molecule, the GI50 in the assay on HS 578T breast was 18.5 µM; in the assay with EKVX NSCLC, 0.255 µM; with HCT-15 colon, 28.3 µM; in the assay with LOX IMVI melanoma, 119 nM. Also, the TGI in the assay on DU-145 prostate, in the assay with RXF 393 renal, in the assay with MOLT-4 leukemia, in the assay with NCI-H460 lung, with SW-620 colon and in the assay with K-562 leukemia was greater than 100 µM throughout. The TGI in the assay with HS 578T breast, with EKVX NSCLC, in the assay on HCT-15 colon and in the assay with LOX IMVI melanoma was greater than 100 µM throughout.
Take `CN(C)CC1CC/C(=C\c2ccc(O)cc2)C1=O` (stereo not given): the TGI in the assay on DU-145 prostate was determined as 29.6 µM; in the assay with RXF 393 renal, 4.8 µM; with MOLT-4 leukemia, 5.29 µM; in the assay with NCI-H460 lung it was 37.2 µM; in the assay with SW-620 colon, 5.33 µM; with K-562 leukemia, 5.76 µM. Further, the TGI in the assay with HS 578T breast was found to be 40.9 µM; in the assay with EKVX NSCLC, 14.4 µM; with HCT-15 colon, 5.48 µM; in the assay on LOX IMVI melanoma, 5.51 µM.
As for `c1ccc(Sc2ncnc3ccccc23)cc1`, the GI50 in the assay with DU-145 prostate is 12 µM; in the assay with RXF 393 renal, 13400 nM; in the assay on MOLT-4 leukemia it was 4.98 µM; in the assay with NCI-H460 lung it was 24.2 µM; in the assay on SW-620 colon it was 14.6 µM; in the assay on K-562 leukemia, 9.72 µM. Moreover, the GI50 with HS 578T breast was 29.5 µM; with EKVX NSCLC it was 10.6 µM; with HCT-15 colon, 8.03 µM; in the assay with LOX IMVI melanoma it was 6270 nM. The TGI was 24.9 µM in the assay with DU-145 prostate; 27.1 µM with RXF 393 renal; 36 µM in the assay on MOLT-4 leukemia; greater than 100 µM in the assay on NCI-H460 lung; 34.8 µM in the assay on SW-620 colon; greater than 100 µM in the assay on K-562 leukemia. The TGI with HS 578T breast was greater than 100 µM; in the assay with EKVX NSCLC, 25.1 µM; with HCT-15 colon, 37.2 µM; in the assay on LOX IMVI melanoma, 19.8 µM.
